Reference: US7074598B2, “Detection of vancomycin-resistant enterococcus spp” (Mayo Foundation for Medical Education and Research, priority 2002, dated 2006)

Tests used:
[1] = tested on: Enterococcus; assay: culture and susceptibility results of anal swab specimens (VRE screen media); type: cell-based
Description: An additional 56 specimens obtained from anal swabs were analyzed using the LIGHTCYCLER™ assay and were compared to a culture method using a VRE screen media. The anal swabs were prepared for amplification as described above. The LIGHTCYCLER™ assay detected more positive specimens than did culture, and is therefore more sensitive than culture. A high rate of false negative results from rectal swab culture has been previously confirmed in the literature (Clin. Infect. Dis., 2002, 34:167–172).

[2] = tested on: vanB strains of vancomycin-resistant enterococci; settings: vanB phenotypes (vanB, vanB-2/3); cited from earlier work
[3] = tested on: Enterococcus isolates from anal swabs; assay: MIC of isolates cultured from anal swabs of hospitalized patients; type: cell-based
Description: Four hundred ninety seven anal swabs collected from hospitalized patients were evaluated for the presence of vanA, vanB and vanB-2/3 genes by the LIGHTCYCLER™ vancomycin-resistant enterococci assay and by conventional culture methods. 482 of the 497 specimens were negative for the van genes and 12 were positive (9 vanA; 0 vanB; 3 vanB-2/3) by the LIGHTCYCLER™ vancomycin-resistant enterococci assay and the conventional culture screen using an 8 μg/ml Enterococcosel plate. […] The MIC values for all of the other isolates were susceptible to vancomycin at ≦8 μg/ml. An additional 21 specimens (4 vanA; 5 vanB; 12 vanB-2/3) were positive by the LIGHTCYCLER™ vancomycin-resistant enterococci assay but were negative by culture. Three of these patient specimens were culture positive with a repeat swab collection. Six of the positive specimens were separate specimens from the same patients. Due to the large number of vanB genotypes missed by culture and picked up with the LIGHTCYCLER™ vancomycin-resistant enterococci assay, the concentration of vancomycin in the Enterococcesel plates was decreased to 6 μg/ml, which is the usual laboratory standard (Manual of Clinical Microbiology, 7th Ed., 1999).

[4] = tested on: clinical isolates of Enterococcus; assay: agar dilution antimicrobial susceptibility testing (MIC) of clinical isolates of Enterococcus; type: cell-based
Description: One hundred clinical isolates of Enterococcus (E. casseliflavus/flavescens [n=10], E. faecalis [n=34], E. faecium [n=43], E. avium [n=1], E. gallinarum [n=11], and E. raffinosus [n=1]) were grown on blood agar plates and evaluated for the presence of vanA, vanB, and vanB 2/3 genes using a rapid LIGHTCYCLER™ vancomycin-resistant enteroccoci assay. The LIGHTCYCLER™ vancomycin-resistant enteroccoci assay differentiates the three van genes based on the temperature range over which hybridization probes melt from the target DNA (e.g., as determined by a melting curve). […] The MIC values for all of the other isolates were susceptible to vancomycin at ≦8 μg/ml.

[5] = tested on: vanA strains of vancomycin-resistant enterococci; settings: cited from earlier work; for glycopeptide resistance phenotype: vanA phenotype
[6] = tested on: vanC phenotype of vancomycin-resistant enterococci; settings: cited from earlier work
[7] = Enterococcus cultured from anal swab specimen #52 (LightCycler VanA)
[8] = Enterococcus cultured from anal swab specimen #235 (LightCycler VanA)
[9] = Enterococcus cultured from anal swab specimen #244 (LightCycler VanA)
[10] = Enterococcus cultured from anal swab specimen #279 (LightCycler VanB-2/3)
[11] = Enterococcus cultured from anal swab specimen #286 (LightCycler VanB-2/3 weak)
[12] = Enterococcus cultured from anal swab specimen #296 (LightCycler Negative)
[13] = Enterococcus cultured from anal swab specimen #304 (LightCycler Negative)
[14] = Enterococcus cultured from anal swab specimen #419 (LightCycler VanA)
[15] = Enterococcus cultured from anal swab specimen #425 (LightCycler Negative)

| Compound | Susceptibility Results [1, 7] | Susceptibility Results [1, 8] | Susceptibility Results [1, 9] | Susceptibility Results [1, 10] | Susceptibility Results [1, 11] | Susceptibility Results [1, 12] | Susceptibility Results [1, 13] | Susceptibility Results [1, 14] | Susceptibility Results [1, 15] | glycopeptide resistance phenotype [2] | MIC ([3]; all of the other isolates from anal swabs, susceptible) | MIC ([3]; vanA and vanB positive isolates from anal swabs, all resistant) | MIC ([4]; all of the other isolates (van gene negative), susceptible) | MIC ([4]; vanA, vanB, and vanB-2/3 positive isolates (43 of 100 clinical isolates), all resistant) | glycopeptide resistance phenotype [5] | minimum inhibitory concentration (MIC) ([5]; vanA strains, typical level) | glycopeptide resistance phenotype [6] |
| --- | --- | --- | --- | --- | --- | --- | --- | --- | --- | --- | --- | --- | --- | --- | --- | --- | --- |
| CC1(C)S[C@@H]2[C@H](NC(=O)[C@H](N)c3ccccc3)C(=O)N2[C@H]1C(=O)O [Amp, Ampicillan] | S | Amp, Van, Pen, Gent = R | R | R | Amp, Van, Pen, Gent = S | Amp, Van, Pen, Gent = S | S | R | S |  |  |  |  |  |  |  |  |
| CN[C@H](CC(C)C)C(=O)N[C@H]1C(=O)N[C@@H](CC(N)=O)C(=O)N[C@H]2C(=O)N[C@H]3C(=O)N[C@H](C(=O)N[C@H](C(=O)O)c4cc(O)cc(O)c4-c4cc3ccc4O)[C@H](O)c3ccc(c(Cl)c3)Oc3cc2cc(c3O[C@@H]2O[C@H](CO)[C@@H](O)[C@H](O)[C@H]2O[C@H]2C[C@](C)(N)[C@H](O)[C@H](C)O2)Oc2ccc(cc2Cl)[C@H]1O [vancomycin] | I | Amp, Van, Pen, Gent = R | R | S | Amp, Van, Pen, Gent = S | Amp, Van, Pen, Gent = S | I | R | I | variable vancomycin-resistance | ≤ 8 µg/mL | ≥ 64 µg/mL | ≤ 8 µg/mL | ≥ 64 µg/mL | high levels of resistance | > 64 µg/mL | low levels of vancomycin-resistance |
| Gentamycin | S | Amp, Van, Pen, Gent = R | S | S | Amp, Van, Pen, Gent = S | Amp, Van, Pen, Gent = S | S | I | S |  |  |  |  |  |  |  |  |
| Pennicillin | S | Amp, Van, Pen, Gent = R | R | R | Amp, Van, Pen, Gent = S | Amp, Van, Pen, Gent = S | S | R | S |  |  |  |  |  |  |  |  |
| teicoplanin |  |  |  |  |  |  |  |  |  | susceptible |  |  |  |  | high levels of resistance |  | susceptible |
